In US20260234130A1, “EP2 Antagonist Compounds” (Reservoir Neuroscience, Inc., priority 2022, published 2026):

Molecular target: T1, EP2 receptor (Homo sapiens, UniProt P43116)
T1 construct: expressed in transfected cells; host or cells: CHO-K1 cells (ATCC), transient transfection with FuGENE 6
Assay: EP2 potency assay (cAMP TR-FRET, LANCE Ultra cAMP kit) in transfected CHO-K1 cells stimulated with PGE2 at EC80
Format: cell-based
Conditions: EP2 antagonism, CHO-K1 cells expressing EP2, PGE2 at EC80
Procedure: Compound potency was measured using a cAMP TR-FRET assay. CHO-K1 cells (ATCC) were seeded at a density of 9.75×105 in 6 cm plates, and then on the following day cell media was changed to Opti-Mem I reduced serum media (Gibco), and transfected with a plasmid for expression of the EP2 receptor (the target receptor of interest), using the FuGENE 6 Transfection reagent (Promega). After 6 hours incubation, the cell media was replaced with F12 medium supplemented with 10% FBS and 100 U/ml Pen-Strep. 24 hours after transfection, cells were harvested and seeded at a density of 3000 cells/well in a 384 well plate to perform the cAMP assay, using the LANCE Ultra cAMP assay kit (PerkinElmer). For each test compound of interest, 10 nl/well of serially diluted test compound was added to each well, resulting in a range of 10 serially diluted compound concentrations from 10000 nM to 0.038 nM, with duplicate wells for each concentration. Plates were then centrifuged at 1000 rpm for 1 min, agitated at 600 rpm at R.T. for 2 min, and incubated at 25° C. for 5 min. The reference agonist, prostaglandin E2 (MCE), was added to each well at the appropriate concentration to reach its EC80 value. Plates were then centrifuged at 1000 rpm for 1 min, agitated at 600 rpm at R.T. for 2 min, and incubated at 25° C. for 30 min. To measure levels of cAMP, 5 μl/well of Eu-cAMP working solution and 5 μl/well of Ulight-anti-cAMP working solution were added to each well, and the plate was centrifuged at 1000 rpm for 1 min, agitated at 600 rpm at R.T. for 2 min, and incubated at 25° C. for 15 min. Levels of TR-FRET fluorescence were measured in each well using an EnVision microplate reader (excitation wavelength=337 nm and emission wavelength=615 and 665 nm). A dose-response curve was prepared by plotting percent inhibition for each compound concentration, and then IC50 was calculated by fitting a curve to the plotted values and extrapolating the IC50 concentration. […] Potency data is grouped into categories of AA (IC50<100 nM); A (IC50=100 to 500 nM); B (IC50=500 nM to […]); C (IC50=1 μM to 5 μM); and D (IC50>5 μM).

T1 sequence (P43116 whole entry): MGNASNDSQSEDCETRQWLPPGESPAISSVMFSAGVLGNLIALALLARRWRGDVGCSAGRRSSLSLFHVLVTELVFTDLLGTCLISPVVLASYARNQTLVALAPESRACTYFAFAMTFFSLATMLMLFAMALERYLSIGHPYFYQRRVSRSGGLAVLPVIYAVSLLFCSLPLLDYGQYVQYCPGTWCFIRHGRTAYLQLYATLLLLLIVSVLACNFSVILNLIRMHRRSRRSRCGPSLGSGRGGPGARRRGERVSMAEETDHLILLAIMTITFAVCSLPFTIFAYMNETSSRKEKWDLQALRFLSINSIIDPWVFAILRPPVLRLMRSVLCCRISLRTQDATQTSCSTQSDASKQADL

Nc1cc(CN2CCOc3c(Cl)cc(-n4ccc5cc(F)ccc54)cc3C2)cnn1 [II-23, 5-((9-chloro-7-(5-fluoro-1H-indol-1-yl)-2,3-dihydrobenzo[f][1,4]oxazepin-4(5H)-yl)methyl)pyridazin-3-amine]
IC50 (Table (V)): 500 to 1000 nM

Fc1ccc2c(ccn2-c2cc(Cl)c3c(c2)CN(Cc2cnc4[nH]ncc4c2)CCO3)c1 [II-31, 4-((1H-pyrazolo[3,4-b]pyridin-5-yl)methyl)-9-chloro-7-(5-fluoro-1H-indol-1-yl)-2,3,4,5-tetrahydrobenzo[f][1,4]oxazepine]
IC50 (Table (V)): 1000 to 5000 nM

Fc1ccc2c(ccn2-c2cc(Cl)c3c(c2)CN(Cc2cncnc2)CCO3)c1 [II-9, 9-chloro-7-(5-fluoro-1H-indol-1-yl)-4-(pyrimidin-5-ylmethyl)-2,3,4,5-tetrahydrobenzo[f][1,4] oxazepine]
IC50 (Table (V)): 100 to 500 nM

COc1ncncc1CN1CCOc2c(Cl)cc(-n3ccc4cc(F)ccc43)cc2C1 [II-29, 9-chloro-7-(5-fluoro-1H-indol-1-yl)-4-((4-methoxypyrimidin-5-yl)methyl)-2,3,4,5-tetrahydrobenzo[f][1,4]oxazepine]
IC50 (Table (V)): 500 to 1000 nM

Cc1nc(=O)[nH]c(C)c1CN1CCOc2c(Cl)cc(-n3ccc4cc(F)ccc43)cc2C1 [II-24, 5-((9-chloro-7-(5-fluoro-1H-indol-1-yl)-2,3-dihydrobenzo[f][1,4]oxazepin-4(5H)-yl)methyl)-4,6-dimethylpyrimidin-2(1H)-one]
IC50 (Table (V)): 500 to 1000 nM

COC(=O)c1ccc(CN2CCOc3c(Cl)cc(-n4ccc5cc(F)ccc54)cc3C2)cn1 [II-19, methyl 5-((9-chloro-7-(5-fluoro-1H-indol-1-yl)-2,3-dihydrobenzo[f][1,4]oxazepin-4(5H)-yl)methyl)picolinate]
IC50 (Table (V)): 100 to 500 nM

CS(=O)(=O)Nc1ncc(CN2CCOc3c(Cl)cc(-n4ccc5cc(F)ccc54)cc3C2)cn1 [II-13]
IC50 (Table (V)): 1000 to 5000 nM

Fc1ccc2c(-c3cc(Cl)c4c(c3)CN(Cc3cnc(-c5nnn[nH]5)nc3)CCO4)coc2c1 [II-43, 4-((2-(1H-tetrazol-5-yl)pyrimidin-5-yl)methyl)-9-chloro-7-(6-fluorobenzofuran-3-yl)-2,3,4,5-tetrahydrobenzo[f][1,4]oxazepine]
IC50 (Table (V)): < 100 nM

COc1ncc(CN2CCOc3c(Cl)cc(N4CCN(C)c5cc(F)ccc54)cc3C2)cn1 [II-3, 9-chloro-7-(6-fluoro-4-methyl-3,4-dihydroquinoxalin-1(2H)-yl)-4-((2-methoxypyrimidin-5-yl)methyl)-2,3,4,5-tetrahydrobenzo[f][1,4] oxazepine]
IC50 (Table (V)): > 5000 nM

CC(=O)Nc1ncc(CN2CCOc3c(Cl)cc(-n4ccc5cc(F)ccc54)cc3C2)cn1 [II-14, N-(5-((9-chloro-7-(5-fluoro-1H-indol-1-yl)-2,3-dihydrobenzo[f][1,4]oxazepin-4(5H)-yl)methyl)pyrimidin-2-yl)acetamide]
IC50 (Table (V)): 1000 to 5000 nM

N#Cc1ncc(CN2CCOc3c(Cl)cc(-n4ccc5cc(F)ccc54)cc3C2)cn1 [II-6, 5-((9-chloro-7-(5-fluoro-1H-indol-1-yl)-2,3-dihydrobenzo[f][1,4]oxazepin-4(5H)-yl)methyl)pyrimidine-2-carbonitrile]
IC50 (Table (V)): 500 to 1000 nM

Nc1ncc(CN2CCOc3c(Cl)cc(-n4ccc5cc(F)ccc54)cc3C2)c(=O)[nH]1 [II-16, 2-amino-5-((9-chloro-7-(5-fluoro-1H-indol-1-yl)-2,3-dihydrobenzo[f][1,4]oxazepin-4(5H)-yl)methyl)pyrimidin-4(3H)-one]
IC50 (Table (V)): > 5000 nM

O=c1ncc(CN2CCOc3c(Cl)cc(-n4ncc5cc(F)ccc54)cc3C2)c[nH]1 [II-44, 5-((9-chloro-7-(5-fluoro-1H-indazol-1-yl)-2,3-dihydrobenzofuran[f][1,4]oxazepin-4(5H)-yl)methyl)pyrimidin-2(1H)-one]
IC50 (Table (V)): < 100 nM

Cc1nc(Cl)nc(C)c1CN1CCOc2c(Cl)cc(-n3ccc4cc(F)ccc43)cc2C1 [II-28, 9-chloro-4-((2-chloro-4,6-dimethylpyrimidin-5-yl)methyl)-7-(5-fluoro-1H-indol-1-yl)-2,3,4,5-tetrahydrobenzo[f][1,4]oxazepine]
IC50 (Table (V)): 1000 to 5000 nM

CCOC(=O)c1ncc(CN2CCOc3c(Cl)cc(-n4ccc5c(F)c(F)ccc54)cc3C2)cn1 [II-74, ethyl 5-((9-chloro-7-(4,5-difluoro-1H-indol-1-yl)-2,3-dihydrobenzo[f][1,4]oxazepin-4(5H)-yl)methyl)pyrimidine-2-carboxylate]
IC50 (Table (V)): < 100 nM

COc1ccc(C(=O)N2CCC(COc3ccc(-c4ccc(C#N)cc4)cc3)(C(O)(O)C(F)(F)F)C2)cc1 (centres unmarked) [I-13, 4′-((1-(4-methoxybenzoyl)-3-(2,2,2-trifluoro-1,1-dihydroxyethyl)pyrrolidin-3-yl)methoxy)-[1,1′-biphenyl]-4-carbonitrile]
IC50 (Table (IV)): > 5000 nM

Fc1ccc2c(ccn2-c2cc(Cl)c3c(c2)CN(Cc2cnc4[nH]ccc4c2)CCO3)c1 [II-27, 4-((1H-pyrrolo[2,3-b]pyridin-5-yl)methyl)-9-chloro-7-(5-fluoro-1H-indol-1-yl)-2,3,4,5-tetrahydrobenzo[f][1,4]oxazepine]
IC50 (Table (V)): 100 to 500 nM

Fc1ccc2c(ccn2-c2cc(Cl)c3c(c2)CN(Cc2cnc(C4=NCCN4)nc2)CCO3)c1 [II-26, 9-chloro-4-((2-(4,5-dihydro-1H-imidazol-2-yl)pyrimidin-5-yl)methyl)-7-(5-fluoro-1H-indol-1-yl)-2,3,4,5-tetrahydrobenzo[f][1,4]oxazepine]
IC50 (Table (V)): > 5000 nM

O=c1ncc(CN2CCOc3c(Cl)cc(-c4coc5cc(F)ccc45)cc3C2)c[nH]1 [II-38, 5-((9-chloro-7-(6-fluorobenzofuran-3-yl)-2,3-dihydrobenzo[f][1,4]oxazepin-4(5H)-yl)methyl)pyrimidin-2(1H)-one]
IC50 (Table (V)): < 100 nM

COCCc1ncc(CN2CCOc3c(Cl)cc(-n4ccc5cc(F)ccc54)cc3C2)cn1 [II-20, 9-chloro-7-(5-fluoro-1H-indol-1-yl)-4-((2-(2-methoxyethyl)pyrimidin-5-yl)methyl)-2,3,4,5-tetrahydrobenzo[f][1,4]oxazepine]
IC50 (Table (V)): 500 to 1000 nM

Fc1ccc2c(ccn2-c2cc(Cl)c3c(c2)CN(Cc2cnc(-c4nnn[nH]4)nc2)CCO3)c1 [II-22, 4-((2-(1H-tetrazol-5-yl)pyrimidin-5-yl)methyl)-9-chloro-7-(5-fluoro-1H-indol-1-yl)-2,3,4,5-tetrahydrobenzo[f][1,4]oxazepine]
IC50 (Table (V)): < 100 nM

COc1ccc(C(=O)N2CCC(COc3ccc(-c4ccc(C#N)cc4)cc3)(S(C)(=N)=O)C2)cc1 (centres unmarked) [I-9, 4′-((1-(4-methoxybenzoyl)-3-(S-methylsulfonimidoyl)pyrrolidin-3-yl)methoxy)-[1,1′-biphenyl]-4-carbonitrile]
IC50 (Table (IV)): > 5000 nM

COc1ncc(CN2CCOc3c(Cl)cc(-n4cnc5cc(F)ccc54)cc3C2)cn1 [II-49, 9-chloro-7-(5-fluoro-1H-benzo[d]imidazol-1-yl)-4-((2-methoxypyrimidin-5-yl)methyl)-2,3,4,5-tetrahydrobenzo[f][1,4]oxazepine]
IC50 (Table (V)): 500 to 1000 nM

O=C(O)c1ncc(CN2CCOc3c(Cl)cc(-n4ccc5c(F)c(F)ccc54)cc3C2)cn1 [II-41, 5-((9-chloro-7-(4,5-difluoro-1H-indol-1-yl)-2,3-dihydrobenzo[f][1,4]oxazepin-4(5H)-yl)methyl)pyrimidine-2-carboxylic acid]
IC50 (Table (V)): < 100 nM

Fc1ccc2c(ccn2-c2cc(Cl)c3c(c2)CN(Cc2cnc(OCC(F)(F)F)nc2)CCO3)c1 [II-1, 9-chloro-7-(5-fluoro-1H-indol-1-yl)-4-((2-(2,2,2-trifluoroethoxy)pyrimidin-5-yl)methyl)-2,3,4,5-tetrahydrobenzo [f][1,4]oxazepine]
IC50 (Table (V)): > 5000 nM

N#CCc1ncc(CN2CCOc3c(Cl)cc(-n4ccc5cc(F)ccc54)cc3C2)cn1 [II-17, 2-(5-((9-chloro-7-(5-fluoro-1H-indol-1-yl)-2,3-dihydrobenzo[f][1,4]oxazepin-4(5H)-yl)methyl)pyrimidin-2-yl)acetonitrile]
IC50 (Table (V)): 100 to 500 nM

COc1ccc(C(=O)N2CCC(COc3ccc(-c4ccc(C#N)cc4)cc3)(C(O)C(F)(F)F)C2)cc1 (centres unmarked) [I-12, 4′-((1-(4-methoxybenzoyl)-3-(2,2,2-trifluoro-1-hydroxyethyl)pyrrolidin-3-yl)methoxy)-[1,1′-biphenyl]-4-carbonitrile]
IC50 (Table (IV)): > 5000 nM

COc1ncc(CN2CCOc3c(Cl)cc(-n4ccc5cc(C6CC6)ccc54)cc3C2)cn1 [II-10, 9-chloro-7-(5-cyclopropyl-1H-indol-1-yl)-4-((2-methoxypyrimidin-5-yl)methyl)-2,3,4,5-tetrahydrobenzo[f][1,4] oxazepine]
IC50 (Table (V)): > 5000 nM

Cc1ncc(CN2CCOc3c(Cl)cc(-n4ccc5cc(F)ccc54)cc3C2)cn1 [II-5, 9-chloro-7-(5-fluoro-1H-indol-1-yl)-4-((2-methylpyrimidin-5-yl)methyl)-2,3,4,5-tetrahydrobenzo[f][1,4] oxazepine]
IC50 (Table (V)): 100 to 500 nM
